The target of test [1] is T1, HiBit-BRM fusion protein (Homo sapiens, UniProt P51531).
T1 construct: expressed in transfected cells
In words: HiBiT-BRM cell-based degradation assay (Nano-Glo HiBiT Lytic Detection, 24 h). The settings on record: HeLa cells expressing HiBiT-BRM; for DC50: read-out: BRM HiBit Degradation IC50; for BRM HiBit Degradation Maximum measured: top dose 30 μM. In short, it runs like this:
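Luminescence from reconstituted NanoBiT luciferase in lysed HeLa HiBiT-BRM cells served as the measure of remaining BRM after 24 h treatment. Compounds were tested from 30 μM final downward in 3-fold steps. DMSO and 2 μM of a standard BRM/BRG1 degrader defined the scale limits.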
(HiBiT is a short tag that completes a luciferase, so light tracks the accessible tagged protein.)

For test [2], the target named is T2, HiBit-BRG1 fusion protein (Homo sapiens, UniProt P51532).
T2 construct: expressed in transfected cells
T2 sequence (P51532 whole entry, the tested form may be a part): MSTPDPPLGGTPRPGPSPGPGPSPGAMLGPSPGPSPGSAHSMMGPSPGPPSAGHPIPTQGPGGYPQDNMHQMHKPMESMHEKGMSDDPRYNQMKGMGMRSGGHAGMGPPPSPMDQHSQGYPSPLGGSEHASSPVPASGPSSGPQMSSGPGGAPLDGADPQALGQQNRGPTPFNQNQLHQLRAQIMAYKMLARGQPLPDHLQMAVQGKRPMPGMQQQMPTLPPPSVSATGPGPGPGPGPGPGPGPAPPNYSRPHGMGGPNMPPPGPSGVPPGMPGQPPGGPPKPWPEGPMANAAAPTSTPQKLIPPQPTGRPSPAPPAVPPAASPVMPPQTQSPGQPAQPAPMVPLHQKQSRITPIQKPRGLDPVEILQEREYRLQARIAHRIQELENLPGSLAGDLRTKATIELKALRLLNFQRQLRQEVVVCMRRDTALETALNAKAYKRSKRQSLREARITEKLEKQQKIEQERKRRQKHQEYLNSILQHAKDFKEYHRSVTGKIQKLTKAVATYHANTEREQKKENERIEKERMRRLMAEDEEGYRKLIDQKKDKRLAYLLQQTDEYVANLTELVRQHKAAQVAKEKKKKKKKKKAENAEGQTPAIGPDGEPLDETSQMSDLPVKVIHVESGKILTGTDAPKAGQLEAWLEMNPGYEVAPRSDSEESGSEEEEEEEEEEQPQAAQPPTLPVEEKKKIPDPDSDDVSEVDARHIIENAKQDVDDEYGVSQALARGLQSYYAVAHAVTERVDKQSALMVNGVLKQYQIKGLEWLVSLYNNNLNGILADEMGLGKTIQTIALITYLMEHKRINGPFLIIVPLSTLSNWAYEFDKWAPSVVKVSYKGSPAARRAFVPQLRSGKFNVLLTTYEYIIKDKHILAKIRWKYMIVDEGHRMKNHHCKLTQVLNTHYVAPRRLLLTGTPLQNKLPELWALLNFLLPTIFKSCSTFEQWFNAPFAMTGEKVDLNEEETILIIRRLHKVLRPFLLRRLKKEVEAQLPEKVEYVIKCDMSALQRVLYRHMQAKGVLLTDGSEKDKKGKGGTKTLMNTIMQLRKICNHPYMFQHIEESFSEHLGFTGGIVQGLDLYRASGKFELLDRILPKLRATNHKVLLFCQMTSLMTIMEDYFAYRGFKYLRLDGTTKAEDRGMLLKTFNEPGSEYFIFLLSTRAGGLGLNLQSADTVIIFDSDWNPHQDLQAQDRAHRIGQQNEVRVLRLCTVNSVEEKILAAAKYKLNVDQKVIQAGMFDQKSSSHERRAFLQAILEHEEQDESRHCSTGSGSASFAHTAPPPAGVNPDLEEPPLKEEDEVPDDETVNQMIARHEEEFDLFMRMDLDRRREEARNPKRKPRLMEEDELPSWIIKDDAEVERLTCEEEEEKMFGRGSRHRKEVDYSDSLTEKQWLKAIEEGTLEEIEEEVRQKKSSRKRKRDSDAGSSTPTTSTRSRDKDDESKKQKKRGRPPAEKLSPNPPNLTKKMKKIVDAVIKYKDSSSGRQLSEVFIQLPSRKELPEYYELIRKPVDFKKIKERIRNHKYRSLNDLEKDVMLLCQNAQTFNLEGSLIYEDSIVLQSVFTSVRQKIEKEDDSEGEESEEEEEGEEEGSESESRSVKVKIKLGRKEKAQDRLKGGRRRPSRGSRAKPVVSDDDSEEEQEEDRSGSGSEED
In words: HiBiT-BRG1 cell-based degradation assay (Nano-Glo HiBiT Lytic Detection, 24 h). The settings on record: HeLa cells expressing HiBit-BRG1 and LgBit; for DC50: read-out: BRG1 HiBit Degradation IC50; for Dmax: HeLa, top dose 30 μM, read-out: BRG1 HiBit Degradation Maximum measured. In short, it runs like this:
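Stable HeLa line expressing HiBiT-BRG1 and LgBiT, seeded at 5000 cells/well; luminescence read after lytic Nano-Glo HiBiT reagent and 10 min shaking at RT. % degradation normalised between DMSO (high control) and 2 μM reference BRM/BRG1 degrader (low control).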

T1 sequence (P51531 whole entry, the tested form may be a part): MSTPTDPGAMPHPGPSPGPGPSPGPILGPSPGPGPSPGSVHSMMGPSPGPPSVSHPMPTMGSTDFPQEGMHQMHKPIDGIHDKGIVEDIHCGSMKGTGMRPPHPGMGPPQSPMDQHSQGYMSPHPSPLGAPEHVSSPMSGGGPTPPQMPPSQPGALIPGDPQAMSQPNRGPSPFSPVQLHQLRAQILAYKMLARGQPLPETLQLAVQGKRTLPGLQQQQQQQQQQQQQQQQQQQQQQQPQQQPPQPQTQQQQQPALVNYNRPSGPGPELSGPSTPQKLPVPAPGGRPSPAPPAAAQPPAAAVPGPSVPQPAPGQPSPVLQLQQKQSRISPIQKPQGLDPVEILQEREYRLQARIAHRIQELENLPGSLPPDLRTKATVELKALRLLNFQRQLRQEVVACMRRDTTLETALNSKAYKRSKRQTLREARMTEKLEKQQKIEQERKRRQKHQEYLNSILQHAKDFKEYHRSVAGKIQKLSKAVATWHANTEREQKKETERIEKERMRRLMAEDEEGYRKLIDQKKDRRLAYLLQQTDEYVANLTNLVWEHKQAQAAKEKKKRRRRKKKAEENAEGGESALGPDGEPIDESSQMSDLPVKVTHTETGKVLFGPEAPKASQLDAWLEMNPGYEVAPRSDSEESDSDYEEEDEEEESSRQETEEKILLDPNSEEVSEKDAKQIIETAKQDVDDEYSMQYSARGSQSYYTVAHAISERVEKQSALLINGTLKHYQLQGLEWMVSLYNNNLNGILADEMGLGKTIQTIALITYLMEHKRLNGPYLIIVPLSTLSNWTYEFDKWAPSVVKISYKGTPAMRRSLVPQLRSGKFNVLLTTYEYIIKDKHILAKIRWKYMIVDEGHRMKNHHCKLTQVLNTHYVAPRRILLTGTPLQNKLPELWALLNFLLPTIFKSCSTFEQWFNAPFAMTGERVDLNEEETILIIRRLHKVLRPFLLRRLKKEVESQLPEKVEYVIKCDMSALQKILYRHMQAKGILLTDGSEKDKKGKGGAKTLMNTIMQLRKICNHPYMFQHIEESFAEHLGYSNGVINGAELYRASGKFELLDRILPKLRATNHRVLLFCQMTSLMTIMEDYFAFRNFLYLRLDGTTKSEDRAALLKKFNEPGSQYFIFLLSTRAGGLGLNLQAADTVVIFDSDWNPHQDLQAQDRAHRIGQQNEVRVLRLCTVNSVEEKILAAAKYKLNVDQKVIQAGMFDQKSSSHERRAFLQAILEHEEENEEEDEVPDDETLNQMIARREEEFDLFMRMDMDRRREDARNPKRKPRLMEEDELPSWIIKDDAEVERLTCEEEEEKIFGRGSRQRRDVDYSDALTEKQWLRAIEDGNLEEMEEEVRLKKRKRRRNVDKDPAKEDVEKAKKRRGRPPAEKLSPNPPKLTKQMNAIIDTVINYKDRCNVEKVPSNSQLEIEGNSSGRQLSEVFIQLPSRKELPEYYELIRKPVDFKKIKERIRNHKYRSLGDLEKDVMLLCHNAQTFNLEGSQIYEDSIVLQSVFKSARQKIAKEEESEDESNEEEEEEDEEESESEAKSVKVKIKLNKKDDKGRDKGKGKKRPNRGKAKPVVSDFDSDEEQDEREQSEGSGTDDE

In the case of `CS(=O)(=O)n1ccc(C(=O)N[C@@H](CCOCCCC(=O)NCCCC#Cc2cccc3c2C(=O)N(C2CCC(=O)NC2=O)C3=O)C(=O)Nc2nc(-c3ccccc3)cs2)c1` (stereo partly drawn) [Compound 272, (2S)-4-[3-([5-[2-(2,6-dioxopiperidin-3-yl)-1,3-dioxoisoindol-4-yl]pent-4-yn-1-yl]carbamoyl)propoxy]-2-[(1-methanesulfonylpyrrol-3-yl)formamido]-N-(4-phenyl-1,3-thiazol-2-yl)butanamide], in test [1], the DC50 was more than 10 µM and the “BRM HiBit Degradation Maximum measured” value is given as “C (‘C’ = Maximum degradation <50%)”. For the same compound, in test [2], the DC50 was more than 10 µM and the Dmax was less than 50%.

In the case of `CS(=O)(=O)n1ccc(C(=O)N[C@@H](CCOCCCC(=O)NCCOCCOCCOCCNC(=O)COc2ccc3c(c2)C(=O)N(C2CCC(=O)NC2=O)C3=O)C(=O)Nc2nc(-c3ccccc3)cs2)c1` (stereo partly drawn) [Compound 273, (2S)-4-(3-[[2-(2-[2-[2-(2-[[2-(2,6-dioxopiperidin-3-yl)-1,3-dioxoisoindol-5-yl]oxy]acetamido)ethoxy]ethoxy]ethoxy)ethyl]carbamoyl]propoxy)-2-[(1-methanesulfonylpyrrol-3-yl)formamido]-N-(4-phenyl-1,3-thiazol-2-yl)butanamide], in test [1], the DC50 was more than 10 µM and the “BRM HiBit Degradation Maximum measured” value is given as “C (‘C’ = Maximum degradation <50%)”. Besides, in test [2], the DC50 is more than 10 µM and the Dmax was less than 50%.

For the compound `CS(=O)(=O)n1ccc(C(=O)N[C@@H](CCOCCCC(=O)NCCOCCOCCNC(=O)COc2ccc3c(c2)C(=O)N(C2CCC(=O)NC2=O)C3=O)C(=O)Nc2nc(-c3ccccc3)cs2)c1` (stereo partly drawn) [Compound 274, (2S)-4-[3-[(2-[2-[2-(2-[[2-(2,6-dioxopiperidin-3-yl)-1,3-dioxoisoindol-5-yl]oxy]acetamido)ethoxy]ethoxy]ethyl)carbamoyl]propoxy]-2-[(1-methanesulfonylpyrrol-3-yl)formamido]-N-(4-phenyl-1,3-thiazol-2-yl)butanamide], in test [1], the DC50 is more than 10 µM and the “BRM HiBit Degradation Maximum measured” value is “C (‘C’ = Maximum degradation <50%)”. Moreover, in test [2], the DC50 was more than 10 µM and the Dmax was less than 50%.

Take `CS(=O)(=O)n1ccc(C(=O)N[C@@H](CCOCCCC(=O)NCCCCS(=O)(=O)CCCNc2cccc3c2C(=O)N(C2CCC(=O)NC2=O)C3=O)C(=O)Nc2nc(-c3ccccc3)cs2)c1` (stereo partly drawn) [Compound 275, (2S)-4-(3-[[4-(3-[[2-(2,6-dioxopiperidin-3-yl)-1,3-dioxoisoindol-4-yl]amino]propanesulfonyl)butyl]carbamoyl]propoxy)-2-[(1-methanesulfonylpyrrol-3-yl)formamido]-N-(4-phenyl-1,3-thiazol-2-yl)butanamide]: in test [1], the DC50 was more than 10 µM and the “BRM HiBit Degradation Maximum measured” value was “C (‘C’ = Maximum degradation <50%)”. In addition, in test [2], the DC50 is more than 10 µM and the Dmax is less than 50%.

`CN(CCNC(=O)CCCOCC[C@H](NC(=O)c1ccn(S(C)(=O)=O)c1)C(=O)Nc1nc(-c2ccccc2)cs1)CCNc1cccc2c1C(=O)N(C1CCC(=O)NC1=O)C2=O` (stereo partly drawn) [Compound 276, (2S)-4-[3-([2-[(2-[[2-(2,6-dioxopiperidin-3-yl)-1,3-dioxoisoindol-4-yl]amino]ethyl)(methyl)amino]ethyl]carbamoyl)propoxy]-2-[(1-methanesulfonylpyrrol-3-yl)formamido]-N-(4-phenyl-1,3-thiazol-2-yl)butanamide; formic acid]: in test [1], the DC50 was more than 10 µM and the “BRM HiBit Degradation Maximum measured” value is “C (‘C’ = Maximum degradation <50%)”. Further, in test [2], the DC50 was more than 10 µM and the Dmax is less than 50%.

With `CS(=O)(=O)n1ccc(C(=O)N[C@@H](CCOCCCC(=O)NCCC2CCN(c3ccc4c(c3)C(=O)N(C3CCC(=O)NC3=O)C4=O)CC2)C(=O)Nc2nc(-c3ccccc3)cs2)c1` (stereo partly drawn) [Compound 277, (2S)-4-[3-[(2-[1-[2-(2,6-dioxopiperidin-3-yl)-1,3-dioxoisoindol-5-yl]piperidin-4-yl]ethyl)carbamoyl]propoxy]-2-[(1-methanesulfonylpyrrol-3-yl)formamido]-N-(4-phenyl-1,3-thiazol-2-yl)butanamide], in test [1], the DC50 was more than 10 µM and the “BRM HiBit Degradation Maximum measured” value was “C (‘C’ = Maximum degradation <50%)”. In test [2], the DC50 is more than 10 µM and the Dmax is less than 50%.

With `CS(=O)(=O)n1ccc(C(=O)N[C@@H](CCOCCCC(=O)NCCOC2CN(c3ccc4c(c3)C(=O)N(C3CCC(=O)NC3=O)C4=O)C2)C(=O)Nc2nc(-c3ccccc3)cs2)c1` (stereo partly drawn) [Compound 278, (2S)-4-(3-[[2-([1-[2-(2,6-dioxopiperidin-3-yl)-1,3-dioxoisoindol-5-yl]azetidin-3-yl]oxy)ethyl]carbamoyl]propoxy)-2-[(1-methanesulfonylpyrrol-3-yl)formamido]-N-(4-phenyl-1,3-thiazol-2-yl)-butanemide], in test [1], the DC50 was more than 10 µM and the “BRM HiBit Degradation Maximum measured” value is given as “C (‘C’ = Maximum degradation <50%)”. Also, in test [2], the DC50 is more than 10 µM and the Dmax was less than 50%.

In the case of `CS(=O)(=O)n1ccc(C(=O)NC(CCOCCCC(=O)NC2CCN(CCOc3ccc4c(c3)C(=O)N(C3CCC(=O)NC3=O)C4=O)CC2)C(=O)Nc2nc(-c3ccccc3)cs2)c1` [Compound 279, (2S)-4-(3-[[1-(2-[[2-(2,6-dioxopiperidin-3-yl)-1,3-dioxoisoindol-5-yl]oxylethyl)piperidin-4-yl]carbamoyl]propoxy)-2-[(1-methanesulfonylpyrrol-3-yl)formamido]-N-(4-phenyl-1,3-thiazol-2-yl)butanamide; formic acid], in test [1], the DC50 was more than 10 µM and the “BRM HiBit Degradation Maximum measured” value is listed as “C (‘C’ = Maximum degradation <50%)”. In addition, in test [2], the DC50 is more than 10 µM and the Dmax was less than 50%.

`CS(=O)(=O)n1ccc(C(=O)N[C@@H](CCOCCCC(=O)NCCOc2ccc3c(c2)C(=O)N(C2CCC(=O)NC2=O)C3=O)C(=O)Nc2nc(-c3ccccc3)cs2)c1` (stereo partly drawn) [Compound 280, (2S)-4-[3-[(2-[[2-(2,6-dioxopiperidin-3-yl)-1,3-dioxoisoindol-5-yl]oxy]ethyl)carbamoyl]propoxy]-2-[(1-methanesulfonylpyrrol-3-yl)formamido]-N-(4-phenyl-1,3-thiazol-2-yl)butanamide]: in test [1], the DC50 is more than 10 µM and the “BRM HiBit Degradation Maximum measured” value is “C (‘C’ = Maximum degradation <50%)”. For the same compound, in test [2], the DC50 is more than 10 µM and the Dmax is less than 50%.

With `CS(=O)(=O)n1ccc(C(=O)N[C@@H](CCOCCCC(=O)NCCCCCCCCNc2cccc3c2C(=O)N(C2CCC(=O)NC2=O)C3=O)C(=O)Nc2nc(-c3ccccc3)cs2)c1` (stereo partly drawn) [Compound 281, (2S)-4-[3-[(8-[[2-(2,6-dioxopiperidin-3-yl)-1,3-dioxoisoindol-4-yl]amino]octyl)carbamoyl]propoxy]-2-[(1-methanesulfonylpyrrol-3-yl)formamido]-N-(4-phenyl-1,3-thiazol-2-yl)butanamide], in test [1], the DC50 is more than 10 µM and the “BRM HiBit Degradation Maximum measured” value was “C (‘C’ = Maximum degradation <50%)”. Further, in test [2], the DC50 was more than 10 µM and the Dmax is less than 50%.

Take `CS(=O)(=O)n1ccc(C(=O)N[C@@H](CCOCCCC(=O)NCCCCNc2ccc3c(c2)C(=O)N(C2CCC(=O)NC2=O)C3=O)C(=O)Nc2nc(-c3ccccc3)cs2)c1` (stereo partly drawn) [Compound 282, (2S)-4-[3-[(4-[[2-(2,6-dioxopiperidin-3-yl)-1,3-dioxoisoindol-5-yl]amino]butyl)carbamoyl]propoxy]-2-[(1-methanesulfonylpyrrol-3-yl)formamido]-N-(4-phenyl-1,3-thiazol-2-yl)butanamide]: in test [1], the DC50 was more than 10 µM and the “BRM HiBit Degradation Maximum measured” value is listed as “C (‘C’ = Maximum degradation <50%)”. Besides, in test [2], the DC50 is more than 10 µM and the Dmax is less than 50%.

Turning to `CS(=O)(=O)n1ccc(C(=O)N[C@@H](CCOCCCC(=O)NCCCCCCNc2ccc3c(c2)C(=O)N(C2CCC(=O)NC2=O)C3=O)C(=O)Nc2nc(-c3ccccc3)cs2)c1` (stereo partly drawn) [Compound 283, (2S)-4-[3-[(6-[[2-(2,6-dioxopiperidin-3-yl)-1,3-dioxoisoindol-5-yl]amino]hexyl)carbamoyl]propoxy]-2-[(1-methanesulfonylpyrrol-3-yl)formamido]-N-(4-phenyl-1,3-thiazol-2-yl)butanamide], in test [1], the DC50 is more than 10 µM and the “BRM HiBit Degradation Maximum measured” value is reported as “C (‘C’ = Maximum degradation <50%)”. Besides, in test [2], the DC50 is more than 10 µM and the Dmax was less than 50%.

For the compound `CS(=O)(=O)n1ccc(C(=O)N[C@@H](CCCCNC(=O)C2CC2CNC(=O)COc2cccc3c2C(=O)N(C2CCC(=O)NC2=O)C3=O)C(=O)Nc2nc(-c3ccccc3)cs2)c1` (stereo partly drawn) [Compound 284, (2S)-6-([2-[(2-[[2-(2,6-dioxopiperidin-3-yl)-1,3-dioxoisoindol-4-yl]oxy]acetamido)methyl]cyclopropyl]formamido)-2-[(1-methanesulfonylpyrrol-3-yl)formamido]-N-(4-phenyl-1,3-thiazol-2-yl)hexanamide], in test [1], the DC50 was more than 10 µM and the “BRM HiBit Degradation Maximum measured” value is recorded as “C (‘C’ = Maximum degradation <50%)”. In addition, in test [2], the DC50 was more than 10 µM and the Dmax was less than 50%.
